Assay results as given in patent US6057366A (priority 1994, dated 2000).
Entries after “also recorded” stand apart in the source; their conditions may differ.

Columns and labels:
[1] = system: lactating mammary gland; type: in vivo, mouse; details: for activity in inducing widespread lactating mammary gland necrosis: 50-100 mg/kg body weight
Excerpt: (§1) White lactating female Quackenbush mice of body weight 40-50 g were used. All animal experiments followed the code of practice for the care and use of animals for experimental purposes as outlined by the Australian National Health and Medical Research Council. For the toxicity testing of leaf and crude extracts, on the fourth day after parturition the litter of each mouse was reduced to eight pups and weights of dam and litter respectively recorded. The dam was then separated from the litter and fasted overnight. On the following day and for 24 hours thereafter, the dam was offered 20 g of powdered commercial rodent diet containing 5% of powdered freeze-dried avocado leaf. In the case of preliminary organic extracts of the leaf, equivalent quantities were added to 20 g of powdered rodent diet, mixed thoroughly and the solvent evaporated under reduced pressure. After 24 hours on the medicated diet, regular untreated cubed diet was provided and the litter restored to the dam. At later stages of the isolation and purification of the active principle, the compound was suspended in up to 1 ml of 1% Tween 80 or Intralipid and given as a single dose by gavage on days 4 to 5 of lactation without prior fasting of the dam and simultaneous temporary removal of her pups. The dam and her pups were weighed daily. […] From 3 to 7 days after exposure to the avocado supplemented diet, or gavage of the purified extracts as the case may be, the dam was euthanased with carbon dioxide and all mammary glands and heart removed and fixed in buffered neutral 10% formalin for pathological examination.
The R and S isomers of persin were tested for activity required to induce widespread lactating mammary gland necrosis at the dose rate of 50-100 mg/kg body weight.

[2] = system: avocado lipoxygenase; details: declines during ripening of the fruit; cited from earlier work
[3] = system: lactating mammary gland; details: Craigmill et al. (1989), cited from earlier work
[4] = system: lactating mammary gland; type: in vivo; details: even as high single dose 200 mg/kg, mouse
[5] = system: human breast cancer cell lines (MCF7, ZR75, T47D); experiment: Neutral red dye uptake assay (in vitro cytotoxicity), human breast cancer cell lines; type: cell-based; details: 10 to 0.3125 μg/ml, 20 hours incubation, average of 2 experiments, actual concentration reaching the cells unknown
Excerpt: For purposes of using a rapid, simple and cheap method of pre-screening cytotoxicity, we chose the neutral red dye uptake procedure to test such activity in the given extract.
Human breast and ovarian cancer cell lines were maintained in RPMI 1640 culture medium supplemented with 10% fetal calf serum, 2 mm L-glutamine and penicillin, streptomycin and fungizone. Cells were passaged by trypsinization and plated in 96-well flat-bottomed tissue culture plates at 5×10^4 cells per well. Cells were preincubated for 6 hours at 37° C., 5% CO2 in a humidified atmosphere to allow cell attachment prior to addition of the extract.
Persin was dissolved in DMF (supplied by National Research Centre for Environmental Toxicology) to give a stock solution of 100 μg/ml. […] 10 μl of the solution was added to quadruplicate wells in doubling dilution from 10 μg/ml to 0.3125 μg/ml (final concentration). Control wells had tissue culture diluent added only. DMF controls had DMF added to a final concentration of 0.1%. The extract was incubated with the cells for 20 hours before being gently aspirated. Cells were washed twice with Hanks Balanced Salt Solution (HBSS) with centrifugation in special microtiter plate carriers between washes so as not to lose viable but dislodged cells.
Neutral red was prepared fresh before each experiment from a 1% stock solution. One hundred microtiters of working solution (67 μg/ml in HBSS) was added to all wells and incubation continued for a further 4 hours. Non-absorbed dye was removed by washing cells as described above.
Absorbed dye was extracted from cells by adding 100 μl of 50% ethanol in 1% acetic acid.
Plates were mixed thoroughly to allow full extraction of the dye and were then read in a Multiscan plate reader at 540 nm. Dose response curves were constructed by plotting the percentage of untreated/control well OD540 versus concentration of extract. Individual extract concentration points were tested in quadruplicate and the results presented are averaged from 2 separate experiments. […]

[6] = system: human colon cancer cell line (LS174T); experiment: Neutral red dye uptake assay (in vitro cytotoxicity), human colon cancer cell line; type: cell-based; details: any dose tested (10 to 0.3125 μg/ml), 20 hours
[7] = Pathological effects on the myocardium after oral dosing; type: in vivo, mouse; details: myocardium; mouse, oral; read-out: dose above which necrosis of myocardial fibres may occur
Excerpt: as §1

[8] = system: myocardium; experiment: as above; type: in vivo, mouse
Excerpt: as §1

[9] = system: silkworm larvae; details: isolated from avocado leaves; Chang et al. 1975; cited from earlier work
[10] = system: Colletotrichum gloeosporioides; details: cited from earlier work
[11] = system: heat and lactating mammary gland of the mouse; details: Sani et al., 1993 symposium; cited from earlier work

SMILES: CCCCC/C=C\C/C=C\CCCCCCCC(=O)CC(O)COC(C)=O (racemic) [mixture of isomers in equal proportions]
- activity in inducing widespread lactating mammary gland necrosis ([1]; mouse): less active than the R isomer

SMILES: Oc1cc(O)c2c(c1)O[C@H](c1ccc(O)c(O)c1)[C@H](O)C2 [epicatechin]
- inhibition of avocado lipoxygenase [2]: inhibitor of the enzyme

SMILES: COc1cc2c(c(OC)c1OC)-c1ccc(OC)c(=O)cc1[C@@H](NC(C)=O)CC2 [colchicine]
- mechanism: microtubule inhibition [3]: microtubule inhibitors
- effect on milk ejection from secretory acinar cells ([3]; locally applied to the acinar cells): prevent ejection of milk from the cells into the acinar lumen

SMILES: CCCCC/C=C\C/C=C\CCCCCCCC(=O)C[C@H](O)COC(C)=O [S isomer, (2S)-2-hydroxy-4-oxo-henicosa-12Z,15Z-dien-1-yl acetate]
- activity in inducing widespread lactating mammary gland necrosis (high single dose) [4]: inactive

SMILES: CCCCCCCCCCCCCCCCCC(=O)C[C@@H](O)COC(C)=O [RMC328, (R)-2-Hydroxy-4-oxohenicosan-1-yl Acetate]
- sensitivity of human breast cancer cell lines relative to other cell lines (neutral red uptake) [5]: the three human breast cancer cell lines showing the greatest sensitivity to the compounds

SMILES: CCCCC/C=C\C/C=C\CCCCCCCC(=O)C[C@@H](O)COC(C)=O [persin, (+)-(Z,Z)-1-acetyloxy-2-hydroxy-12,15-heneicosadien-4-one]
- sensitivity of human breast cancer cell lines relative to other cell lines (neutral red uptake) [5]: Three human breast cancer cell lines showed greater sensitivity to the extract than other cell lines tested; also recorded: the three human breast cancer cell lines showing the greatest sensitivity to the compounds
- sensitivity of human breast cancer cell lines relative to other cell lines (neutral red uptake) ([5]; listed as extract): the human breast cancer cell lines were more sensitive to the extract than the other cell lines
- effect on human colon cancer cell line (neutral red uptake) [6]: not affected by the extract at any dose tested
- activity in inducing widespread lactating mammary gland necrosis ([1]; mouse): active
- mammary epithelium histology (FIG. 9A) ([1]; 72 hours after single oral dose of 60 mg/kg on 4th day of lactation): extensive coagulative necrosis of the secretory tissues
- single oral dose required to induce widespread, non-fatal injury to the lactating mammary gland ([1]; mouse, single oral dose): 60 to 100 mg/kg
- character of the mammary gland injury ([1]; mouse, single oral dose, 60 to 100 mg/kg): interstitial oedema, congestion and haemorrhage and coagulative necrosis with desquamation of the acinar epithelial cells thereby preventing lactation
- inhibition of milk secretion ([1]; oral dosing): inhibition of milk secretion through such a necrogenic action on the secretory epithelium
- damage to lactating mammary gland ([1]; present studies): causes damage both to the lactating mammary gland and the heart muscle
- NOAEL [7]: > 100 mg/kg
- myocardium histology (FIG. 9C) ([8]; 100 mg/kg orally, seven days previously): marked atrophy of muscle fibres (M) interstitial haemorrhage (H) and early scar tissue formation (S)
- myocardial fibrosis ([8]; doses above 100 mg/kg, animals surviving for seven days): areas of myocardial fibrosis can be observed in animals surviving for seven days
- hydrothorax / pulmonary oedema ([8]; doses above 100 mg/kg, more severely affected animals): Hydrothoraz and/or pulmonary oedema may be present in more severly affected animals
- damage to heart muscle ([8]; present studies): causes damage both to the lactating mammary gland and the heart muscle
- growth of silkworm larvae [9]: inhibited the growth of silkworm larvae
- antifungal activity ([10]; isolated from avocado fruit peel or whole fruits, refs (ii) to (xiii)): exhibits antifungal activity in relation to the fungus Colletotrichum gloeosporioides
- loss of activity on double bond oxidation ([10]; natural compound, reference (v)): loses activity due to double bond oxidation
- toxicity for heart and lactating mammary gland [11]: responsible for demonstrated toxicity for the heat and lactating mammary gland of the mouse
